This passage reports Activity results from ChEMBL document CHEMBL1142029, “Design, synthesis, and biological activity of novel PPARgamma ligands based on rosiglitazone and 15d-PGJ2” (Bioorg Med Chem Lett, 2005).

Calls of active or inactive are those of the source. No cut-off for these calls is given here.

Assay [1] addresses T1, Peroxisome proliferator-activated receptor gamma (Homo sapiens) (UniProt P37231).
T1 sequence (whole entry): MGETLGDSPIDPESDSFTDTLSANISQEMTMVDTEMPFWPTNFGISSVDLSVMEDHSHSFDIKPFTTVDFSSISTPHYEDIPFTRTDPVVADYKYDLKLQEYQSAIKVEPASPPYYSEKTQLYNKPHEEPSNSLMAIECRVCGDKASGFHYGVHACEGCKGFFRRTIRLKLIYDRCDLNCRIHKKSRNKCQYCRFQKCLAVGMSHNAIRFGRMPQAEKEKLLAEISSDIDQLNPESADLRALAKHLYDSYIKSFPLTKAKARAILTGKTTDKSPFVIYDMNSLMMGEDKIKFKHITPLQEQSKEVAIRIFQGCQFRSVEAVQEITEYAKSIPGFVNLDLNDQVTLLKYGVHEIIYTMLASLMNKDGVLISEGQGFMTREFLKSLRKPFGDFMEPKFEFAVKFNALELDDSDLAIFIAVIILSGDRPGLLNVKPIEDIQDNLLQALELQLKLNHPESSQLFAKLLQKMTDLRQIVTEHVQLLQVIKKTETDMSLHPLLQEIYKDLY
The assay is described as follows: Binding affinity for peroxisome proliferator-activated receptor gamma: active.

Assay [2] addresses T1, Peroxisome proliferator-activated receptor gamma (Homo sapiens). As to the kind of experiment: Binding affinity for peroxisome proliferator-activated receptor gamma: weak activity.
Assay [3] shares this target. As to the kind of experiment: Binding affinity for peroxisome proliferator-activated receptor gamma: more active.

As to `CCCN(CCOc1ccc(CCC(=O)O)cc1)c1ccccn1`, in assay [1], the result was Active.
With `CCN(CCOc1ccc(CCC(=O)O)cc1)c1ccccn1`, the outcome in assay [1] was Active.
With `O=C(O)CCc1ccc(OCCN(c2ccccn2)c2ccccn2)cc1`, the Activity result in assay [2] is “Weak activity”.
On to `CCCCCN(CCOc1ccc(CCC(=O)O)cc1)c1ccccn1`, for which the result in assay [1] was Active.
Turning to `CCCCCCCCCCN(CCOc1ccc(CCC(=O)O)cc1)c1ccccn1`, the outcome in assay [1] was Active.
Consider `O=C(O)CCc1ccc(OCCN(c2ccccc2)c2ccccn2)cc1`, for which, in assay [2], the Activity entry is “Weak activity”.
`CCCCCCN(CCOc1ccc(CCC(=O)O)cc1)c1ccccn1`: the outcome in assay [1] was Active.
On to `O=C(O)CCc1ccc(OCCn2c3ccccc3c3ccncc32)cc1`, for which the Activity entry in assay [2] was “Weak activity”.
In the case of `CCCCN(CCOc1ccc(CCC(=O)O)cc1)c1ccccn1`, the outcome in assay [1] was Active.
For `CCCCCCCCN(CCOc1ccc(CCC(=O)O)cc1)c1ccccn1`, the outcome in assay [3] was Active.
On to `CN(CCOc1ccc(CCC(=O)O)cc1)c1ccccn1`, for which the outcome in assay [1] was Active.
Consider `CCCCCCCN(CCOc1ccc(CCC(=O)O)cc1)c1ccccn1`, for which the result in assay [3] was Active.
